In patent US4002660A, “S-(4-Chlorophenyl)-3-aryl-3-hydroxypropanethioates” (Morton-Norwich Products, Inc., priority 1976, dated 1977):
Values after ≈ are worked out from the molar mass of the structure shown.

Legend:
Test in all cases: antibacterial potency, serial dilution technique (MIC)
Assay type in all cases: cell-based
St. agalactiae = conditions: Streptococcus agalactiae, read-out: Minimum Inhibitory Concentration
He. Vaginalis = conditions: Gardnerella vaginalis, read-out: Minimum Inhibitory Concentration
Co. liquefaciens = conditions: read-out: Minimum Inhibitory Concentration
S. aureus = conditions: Staphylococcus aureus, read-out: Minimum Inhibitory Concentration
P. multocida = conditions: Pasteurella multocida, read-out: Minimum Inhibitory Concentration

Compound	MIC (St. agalactiae) [µg/mL]	MIC (He. Vaginalis) [µg/mL]	MIC (Co. liquefaciens) [µg/mL]	MIC (S. aureus) [µg/mL]	MIC (P. multocida) [µg/mL]
O=C(CC(O)c1ccccc1)Sc1ccc(Cl)cc1 (stereo not drawn) [I, S-(4-Chlorophenyl)-3-Hydroxy-3-phenylpropanethioate]	3.13 (≈ 10.7 µM)	12.5 (≈ 42.7 µM)	6.25 (≈ 21.3 µM)	6.25 (≈ 21.3 µM)	6.25 (≈ 21.3 µM)
Cc1ccc(C(O)CC(=O)Sc2ccc(Cl)cc2)cc1 (stereo not drawn) [II, S-(4-Chlorophenyl) 3-Hydroxy-3-(4-methylphenyl)propanethioate]	3.13 (≈ 10.2 µM)	3.1 (≈ 10.1 µM)	12.5 (≈ 40.7 µM)	12.5 (≈ 40.7 µM)	3.13 (≈ 10.2 µM)
CCc1ccc(C(O)CC(=O)Sc2ccc(Cl)cc2)cc1 (stereo not drawn) [III, S-(4-Chlorophenyl) 3-(4-Ethylphenyl)-3-hydroxypropanethioate]	3.13 (≈ 9.76 µM)	6.25 (≈ 19.5 µM)	6.25 (≈ 19.5 µM)	6.25 (≈ 19.5 µM)	6.25 (≈ 19.5 µM)
O=C(CC(O)c1ccc(Cl)cc1)Sc1ccc(Cl)cc1 (stereo not drawn) [IV, S-(4-Chlorophenyl) 3-(4-Chlorophenyl)-3-hydroxypropanethioate]	6.25 (≈ 19.1 µM)	3.1 (≈ 9.47 µM)	6.25 (≈ 19.1 µM)	12.5 (≈ 38.2 µM)	6.25 (≈ 19.1 µM)
O=C(CC(O)c1ccc(Cl)cc1Cl)Sc1ccc(Cl)cc1 (stereo not drawn) [V, S-(4-Chlorophenyl) 3-(2,4-Dichlorophenyl)-3-hydroxypropanethioate]	12.5 (≈ 34.6 µM)	12.5 (≈ 34.6 µM)	3.1 (≈ 8.57 µM)	6.25 (≈ 17.3 µM)	25 (≈ 69.1 µM)
O=C(CC(O)c1ccc(Cl)c(Cl)c1)Sc1ccc(Cl)cc1 (stereo not drawn) [VI, S-(4-Chlorophenyl) 3-(3,4-Dichlorophenyl)-3-hydroxypropanethioate]	12.5 (≈ 34.6 µM)	25 (≈ 69.1 µM)	12.5 (≈ 34.6 µM)	25 (≈ 69.1 µM)	25 (≈ 69.1 µM)
Cc1ccc(C(O)CC(=O)Sc2ccc(Cl)cc2)cc1Cl (stereo not drawn) [VII, S-(4-Chlorophenyl) 3-(3-Chloro-4-methylphenyl)-3-hydroxypropanethioate]	12.5 (≈ 36.6 µM)	25 (≈ 73.3 µM)	12.5 (≈ 36.6 µM)	12.5 (≈ 36.6 µM)	25 (≈ 73.3 µM)
